Data reported in patent publication EP4603105A1, “PHARMACEUTICAL COMPOSITION CONTAINING CYCLIC COMPOUND HAVING SELECTIVE KRAS INHIBITORY EFFECT AGAINST HRAS AND NRAS” (CHUGAI SEIYAKU KABUSHIKI KAISHA, priority 2022, dated 2024).
*1 amine or outer side, *2 acyl side, *3 side chain or, on linkers, in order; H or OH if unused. Where a SMILES comes first, the peptide text is derived from it. Bridges are numbered along the chain shown (N, C = ends). [ ]: non-standard residue; d: D form. The star is where a group is joined. hPhe(3,5-F2-4-CF3) = N[C@@H](CCc1cc(F)c(C(F)(F)F)c(F)c1)C(=O)O; hPhe(3-Cl-4-CF3) = N[C@@H](CCc1ccc(C(F)(F)F)c(Cl)c1)C(=O)O; X24 = CC(C)CN([C@@H](Cc1ccc(C(F)(F)F)cc1)C(=O)[*:2])[*:1]; NPrPhe(4-CF3) = CCCN[C@@H](Cc1ccc(C(F)(F)F)cc1)C(=O)O; NMePhe(4-CF3) = CN[C@@H](Cc1ccc(C(F)(F)F)cc1)C(=O)O; X35 = CCCN([C@@H](CC(C)C)C(=O)[*:2])[*:1]; NMeGly(cPent) = CN[C@H](C(=O)O)C1CCCC1; Pro(4,4-F2) = O=C(O)[C@@H]1CC(F)(F)CN1; Nva(3-Et) = CCC(CC)[C@H](N)C(=O)O; Hyp = O=C(O)[C@@H]1C[C@@H](O)CN1; NMeD = CN[C@@H](CC(=O)O)C(=O)O; NMeL = CN[C@@H](CC(C)C)C(=O)O; Morpholide = C1CN(*)CCO1; NMeA = CN[C@@H](C)C(=O)O; Ac5c = NC1(C(=O)O)CCCC1; Aze = O=C(O)[C@@H]1CCN1; Ac4c = NC1(C(=O)O)CCC1; Sar = CNCC(=O)O

Legend:
[1] = tested on: human lung cancer strain NCI-H441; type: cell-based
How it was run: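 Proliferation was scored by […] measured after the reagent was added to cultures kept at 37°C in 5% carbon dioxide.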

HRAS wild-type protein = HRAS wild-type protein (Homo sapiens, UniProt P01112); test: Binding to HRAS by surface plasmon resonance (SPR), KD and KD ratio to KRAS
Sequence of HRAS wild-type protein (P01112 whole entry): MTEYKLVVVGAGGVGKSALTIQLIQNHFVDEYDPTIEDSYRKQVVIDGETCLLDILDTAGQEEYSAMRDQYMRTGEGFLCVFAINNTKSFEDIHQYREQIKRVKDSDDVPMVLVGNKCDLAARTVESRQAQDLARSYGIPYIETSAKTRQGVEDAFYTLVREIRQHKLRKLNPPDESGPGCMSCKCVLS
How it was run: (§1)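 SPR, 30°C: Avi-biotin RAS·GDP captured via Biotin CAPture (~100–300 RU); running buffer HBS pH 7.4, 1 mM DTT, 10 mM MgCl2, 0.01% Tween 20, 10 µM GDP, 4% DMSO. Single-cycle kinetics, 100 µL/min, 75 s injections; 1:1 model → KD.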

[2] = biological target: GDP-bound NRAS wild-type protein (Homo sapiens, UniProt P01111); test: Binding to NRAS by surface plasmon resonance (SPR), KD and KD ratio to KRAS
Sequence of GDP-bound NRAS wild-type protein (P01111 whole entry): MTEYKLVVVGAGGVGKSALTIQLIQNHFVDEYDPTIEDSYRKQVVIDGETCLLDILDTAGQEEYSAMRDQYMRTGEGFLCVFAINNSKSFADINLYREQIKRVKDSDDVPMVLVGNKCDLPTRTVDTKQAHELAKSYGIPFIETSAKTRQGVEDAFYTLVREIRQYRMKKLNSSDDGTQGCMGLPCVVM
How it was run: as §1

[3] = ratio of KD for HRAS wild-type protein to KD for KRAS
[4] = ratio of KD for GDP-bound NRAS wild-type protein to KD for KRAS
[5] = ratio of the KD value with respect to HRAS wild-type protein to the KD value with respect to KRAS
[6] = ratio of the KD value with respect to GDP-bound NRAS wild-type protein to the KD value with respect to KRAS
[7] = ratio of KD value for HRAS wild-type protein to KD value for KRAS (SPR)
[8] = ratio of KD value for GDP-bound NRAS wild-type protein to KD value for KRAS (SPR)

Structure (SMILES)	IC50 [1] [nM]	HRAS /KRAS (HRAS wild-type protein; [3])	NRAS /KRAS [2, 4]	HRAS /KRAS (HRAS wild-type protein; [5])	NRAS /KRAS [2, 6]	HRAS /KRAS (HRAS wild-type protein; [7])	NRAS /KRAS [2, 8]
CC[C@H](C)[C@@H]1NC(=O)[C@H](CC(C)C)N(C)C(=O)C[C@@H](C(=O)N2CCOCC2)N(C)C(=O)[C@H](C2CCCC2)N(C)C(=O)C2(CCCC2)NC(=O)[C@@H]2CCCN2C(=O)[C@H](CCc2ccc(C(F)(F)F)c(Cl)c2)NC(=O)CN(C)C(=O)[C@H](Cc2ccc(C(F)(F)F)cc2)N(CC(C)C)C(=O)[C@@H]2CCN2C(=O)[C@H](C)N(C)C1=O [PP0107] ([NMeL]I[NMeA][Aze][X24][Sar][hPhe(3-Cl-4-CF3)]P[Ac5c][NMeGly(cPent)][NMeD]-Morpholide; lactam N-11)	32.2	C (A compound having a KD ratio of 0.1 or more and less than 3 is denoted as C)	C (A compound having a KD ratio of 0.1 or more and less than 3 is denoted as C)				
CC[C@H](C)[C@@H]1NC(=O)[C@H](CC(C)C)N(C)C(=O)C[C@@H](C(=O)N2CCOCC2)N(C)C(=O)[C@H](C2CCCC2)N(C)C(=O)C2(CCC2)NC(=O)[C@]2(C)CCCN2C(=O)[C@H](CCc2cc(F)c(C(F)(F)F)c(F)c2)NC(=O)CN(C)C(=O)[C@H](Cc2ccc(C(F)(F)F)cc2)N2CCCC[C@@H](C2=O)N(C)C(=O)CN(C)C1=O [PP0808]	16.7	B (a compound having 3 or more and less than 10 is denoted as B)	B (a compound having 3 or more and less than 10 is denoted as B)				
CCCN1C(=O)CN(C)C(=O)[C@@H]2CCN2C(=O)[C@H]([C@@H](C)CC)NC(=O)[C@H](CC(C)C)N(C)C(=O)C[C@@H](C(=O)N(C)C)NC(=O)[C@H](C2CCCC2)N(C)C(=O)C2(CCCC2)NC(=O)[C@@H]2CC(F)(F)CN2C(=O)[C@H](CCc2ccc(C(F)(F)F)c(Cl)c2)NC(=O)CN(C)C(=O)[C@@H]1Cc1ccc(C(F)(F)F)cc1 [PP0375] ([NMeL]I[Aze][Sar][NPrPhe(4-CF3)][Sar][hPhe(3-Cl-4-CF3)][Pro(4,4-F2)][Ac5c][NMeGly(cPent)]D-NMe2; lactam N-11)	57.1	B (a compound having 3 or more and less than 10 is denoted as B)	B (a compound having 3 or more and less than 10 is denoted as B)				
CC[C@H](C)[C@@H]1NC(=O)[C@H](CC(C)C)N(C)C(=O)C[C@@H](C(=O)N(C)C)N(C)C(=O)[C@H](C2CCCC2)N(C)C(=O)C2(CCCC2)NC(=O)[C@@H]2CC(F)(F)CN2C(=O)[C@H](CCc2cc(F)c(C(F)(F)F)c(F)c2)NC(=O)CN(C)C(=O)[C@H](Cc2ccc(C(F)(F)F)cc2)N2CCCCC[C@@H](C2=O)N(C)C(=O)CN(C)C1=O [PP0465]	18			B (a compound having 3 or more and less than 10 is denoted as B)	B (a compound having 3 or more and less than 10 is denoted as B)		
CCC[C@H]1C(=O)N[C@@H]([C@@H](C)CC)C(=O)N(C2CC2)CC(=O)N(C)[C@H]2C/C=C\CCN(C2=O)[C@@H](Cc2ccc(C(F)(F)F)cc2)C(=O)N(C)CC(=O)N[C@@H](CCc2ccc(C(F)(F)F)c(OC)c2)C(=O)N2C[C@H](OCC)C[C@H]2C(=O)N(C)C2(CCC2)C(=O)N(C)[C@@H](C2CCCC2)C(=O)N(C)[C@H](C(=O)N2CCCCC2)CC(=O)N1C [PP3095]	33.7	A (a compound having 10 or more and less than 20 is denoted as A)	A (a compound having 10 or more and less than 20 is denoted as A)				
CCCN1C(=O)C[C@@H](C(=O)N2CCOCC2)N(C)C(=O)[C@H](C2CCCC2)N(C)C(=O)C2(CCC2)NC(=O)[C@@H]2CCCN2C(=O)[C@H](CCc2ccc(C(F)(F)F)c(Cl)c2)NC(=O)CN(C)C(=O)[C@H](Cc2ccc(C(F)(F)F)cc2)N(CCC)C(=O)CN(C)C(=O)CN(C)C(=O)[C@H](C(C)C)NC(=O)[C@@H]1CC(C)C [PP1815] ([X35]V[Sar][Sar][NPrPhe(4-CF3)][Sar][hPhe(3-Cl-4-CF3)]P[Ac4c][NMeGly(cPent)][NMeD]-Morpholide; lactam N-11)	83					B (a compound having 3 or more and less than 10 is denoted as B)	B (a compound having 3 or more and less than 10 is denoted as B)
CCCN1C(=O)CN(C)C(=O)CN(C)C(=O)[C@H]([C@@H](C)CC)NC(=O)[C@H](CC(C)C)N(C)C(=O)C[C@@H](C(=O)N2CCOCC2)N(C)C(=O)[C@H](C2CCCC2)N(C)C(=O)[C@@H](C)NC(=O)[C@@H]2CCCN2C(=O)[C@H](CCc2ccc(C(F)(F)F)c(Cl)c2)NC(=O)CN(C)C(=O)[C@@H]1Cc1ccc(C(F)(F)F)cc1 [PP0150] ([NMeL]I[Sar][Sar][NPrPhe(4-CF3)][Sar][hPhe(3-Cl-4-CF3)]P[dA][NMeGly(cPent)][NMeD]-Morpholide; lactam N-11)	49.1	C (A compound having a KD ratio of 0.1 or more and less than 3 is denoted as C)	B (a compound having 3 or more and less than 10 is denoted as B)				
CCCN1C(=O)[C@@H]2CCN2C(=O)CN(C)C(=O)[C@H](C(CC)CC)NC(=O)[C@H](CC(C)C)N(C)C(=O)C[C@@H](C(=O)N2CCOCC2)N(C)C(=O)[C@H](C2CCCC2)N(C)C(=O)C2(CCCC2)NC(=O)[C@@H]2CCCN2C(=O)[C@H](CCc2cc(F)c(C(F)(F)F)c(F)c2)NC(=O)CN(C)C(=O)[C@@H]1Cc1ccc(C(F)(F)F)cc1 [PP0804] ([NMeL][Nva(3-Et)][Sar][Aze][NPrPhe(4-CF3)][Sar][hPhe(3,5-F2-4-CF3)]P[Ac5c][NMeGly(cPent)][NMeD]-Morpholide; lactam N-11)	40.9	B (a compound having 3 or more and less than 10 is denoted as B)	C (A compound having a KD ratio of 0.1 or more and less than 3 is denoted as C)				
CCC[C@H]1C(=O)N[C@@H]([C@@H](C)CC)C(=O)N(C)CC(=O)N(C)[C@H]2C/C=C\CCN(C2=O)[C@@H](Cc2ccc(C(F)(F)F)cc2)C(=O)N(C)CC(=O)N[C@@H](CCc2cc(F)c(C(F)(F)F)c(F)c2)C(=O)N2C[C@H](OCC)C[C@H]2C(=O)NC2(CC(C)(C)C2)C(=O)N(C)[C@@H](CC2CC2)C(=O)N(C)[C@H](C(=O)N(C)C)CC(=O)N1C [PP2807]	28	A (a compound having 10 or more and less than 20 is denoted as A)	AA (a compound having 20 or more is denoted as AA)				
CC[C@H](C)[C@@H]1NC(=O)[C@H](C)N(C)C(=O)C[C@@H](C(=O)N(C)C)N(C)C(=O)[C@H](C2CCCC2)N(C)C(=O)C2(CCC2)NC(=O)[C@@H]2CC(F)(F)CN2C(=O)[C@H](CCc2cc(F)c(C(F)(F)F)c(F)c2)NC(=O)CN(C)C(=O)[C@H](Cc2ccc(C(F)(F)F)cc2)N2CC/C=C\C[C@@H](C2=O)N(C)C(=O)CN(C)C1=O [PP1103]	34.8	B (a compound having 3 or more and less than 10 is denoted as B)	A (a compound having 10 or more and less than 20 is denoted as A)				
CC[C@H](C)[C@@H]1NC(=O)[C@H](CC(C)C)N(C)C(=O)C[C@@H](C(=O)N2CCOCC2)N(C)C(=O)[C@H](C2CCCC2)N(C)C(=O)C2(CCCC2)NC(=O)[C@@H]2CCCN2C(=O)[C@H](CCc2ccc(C(F)(F)F)c(Cl)c2)NC(=O)CN(C)C(=O)[C@H](Cc2ccc(C(F)(F)F)cc2)N(C)C(=O)CN(C)C(=O)CN(C)C1=O [PP0076] ([NMeL]I[Sar][Sar][NMePhe(4-CF3)][Sar][hPhe(3-Cl-4-CF3)]P[Ac5c][NMeGly(cPent)][NMeD]-Morpholide; lactam N-11)	10.9	C (A compound having a KD ratio of 0.1 or more and less than 3 is denoted as C)	C (A compound having a KD ratio of 0.1 or more and less than 3 is denoted as C)				
CC[C@H](C)[C@@H]1NC(=O)[C@H](CC(C)C)N(CC)C(=O)C[C@@H](C(=O)N2CCOCC2)N(C)C(=O)[C@H](C2CCCC2)N(C)C(=O)C2(CCCC2)NC(=O)[C@@H]2CCCN2C(=O)[C@H](CCc2cc(F)c(C(F)(F)F)c(F)c2)NC(=O)CN(C)C(=O)[C@H](Cc2ccc(C(F)(F)F)cc2)N2CCCC[C@@H](C2=O)N(C)C(=O)CN(C)C1=O [PP0588]	16.7			B (a compound having 3 or more and less than 10 is denoted as B)	B (a compound having 3 or more and less than 10 is denoted as B)		
CCCN1C(=O)[C@@H]2CCN2C(=O)[C@H](C)N(C)C(=O)[C@H]([C@@H](C)CC)NC(=O)[C@H](CC(C)C)N(C)C(=O)C[C@@H](C(=O)N2CCOCC2)N(C)C(=O)[C@H](C2CCCC2)N(C)C(=O)C2(CCCC2)NC(=O)[C@@H]2C[C@@H](OC)CN2C(=O)[C@H](CCc2ccc(C(F)(F)F)c(Cl)c2)NC(=O)CN(C)C(=O)[C@@H]1Cc1ccc(C(F)(F)F)cc1 [PP0283] ([NMeL]I[NMeA][Aze][NPrPhe(4-CF3)][Sar][hPhe(3-Cl-4-CF3)][Hyp](Me)[Ac5c][NMeGly(cPent)][NMeD]-Morpholide; lactam N-11)	1.9	C (A compound having a KD ratio of 0.1 or more and less than 3 is denoted as C)	C (A compound having a KD ratio of 0.1 or more and less than 3 is denoted as C)				
CCCN(C)C(=O)[C@@H]1CC(=O)N(C)[C@@H](CC(F)F)C(=O)N[C@@H]([C@@H](C)CC)C(=O)N(C)CC(=O)N(C)[C@H]2C/C=C\CCN(C2=O)[C@@H](Cc2ccc(C(F)(F)F)cc2)C(=O)N(C)CC(=O)N[C@@H](CCc2cc(F)c(C(F)(F)F)c(F)c2)C(=O)N2CCC[C@H]2C(=O)NC2(CC(C)(C)C2)C(=O)N(C)[C@@H](C2CCCC2)C(=O)N1C [PP1721]	10					A (a compound having 10 or more and less than 20 is denoted as A)	A (a compound having 10 or more and less than 20 is denoted as A)
